Test results as given in ChEMBL document CHEMBL4507295 (2021).

What was measured:
[1] = test system: Tyrosine-protein kinase ABL1 (Homo sapiens), P00519 [F317L]; conditions: Compound concentration 1000.0 nM
[2] = test system: Tyrosine-protein kinase ABL1 (Homo sapiens), P00519 [H396P]; conditions: Compound concentration 1000.0 nM
[3] = target: Atypical kinase COQ8A, mitochondrial (Homo sapiens) (UniProt Q8NI60); conditions: Compound concentration 1000.0 nM
[4] = target: RAC-alpha serine/threonine-protein kinase (Homo sapiens) (UniProt P31749); conditions: Compound concentration 1000.0 nM
[5] = target: Serine/threonine-protein kinase B-raf (Homo sapiens) (UniProt P15056); conditions: Compound concentration 1000.0 nM
[6] = target: Protein-tyrosine kinase 6 (Homo sapiens) (UniProt Q13882); conditions: Compound concentration 1000.0 nM
[7] = target: Calcium/calmodulin-dependent protein kinase type 1 (Homo sapiens) (UniProt Q14012); conditions: Compound concentration 1000.0 nM
[8] = target: Calcium/calmodulin-dependent protein kinase kinase 1 (Homo sapiens) (UniProt Q8N5S9); conditions: Compound concentration 1000.0 nM
[9] = target: Cyclin-dependent kinase 8 (Homo sapiens) (UniProt P49336); conditions: Compound concentration 1000.0 nM
[10] = target: Tyrosine-protein kinase CSK (Homo sapiens) (UniProt P41240); conditions: Compound concentration 1000.0 nM
[11] = target: Death-associated protein kinase 1 (Homo sapiens) (UniProt P53355); conditions: Compound concentration 1000.0 nM
[12] = test system: Epidermal growth factor receptor (Homo sapiens), P00533 [UNDEFINED MUTATION]; conditions: Compound concentration 1000.0 nM
[13] = test system: Epidermal growth factor receptor (Homo sapiens), P00533 [T790M]; conditions: Compound concentration 1000.0 nM
[14] = target: Serine/threonine-protein kinase/endoribonuclease IRE1 (Homo sapiens) (UniProt O75460); conditions: Compound concentration 1000.0 nM
[15] = target: Tyrosine-protein kinase Fgr (Homo sapiens) (UniProt P09769); conditions: Compound concentration 1000.0 nM
[16] = test system: Receptor-type tyrosine-protein kinase FLT3 (Homo sapiens), P36888 [D835H]; conditions: Compound concentration 1000.0 nM
[17] = test system: Receptor-type tyrosine-protein kinase FLT3 (Homo sapiens), P36888 [UNDEFINED MUTATION]; conditions: Compound concentration 1000.0 nM
[18] = target: Receptor-type tyrosine-protein kinase FLT3 (Homo sapiens) (UniProt P36888); conditions: Compound concentration 1000.0 nM
[19] = target: Serine/threonine-protein kinase haspin (Homo sapiens) (UniProt Q8TF76); conditions: Compound concentration 1000.0 nM
[20] = test system: Mast/stem cell growth factor receptor Kit (Homo sapiens), P10721 [V559D]; conditions: Compound concentration 1000.0 nM
Chain of Mast/stem cell growth factor receptor Kit (Homo sapiens), P10721 [V559D] (P10721 whole entry V559D): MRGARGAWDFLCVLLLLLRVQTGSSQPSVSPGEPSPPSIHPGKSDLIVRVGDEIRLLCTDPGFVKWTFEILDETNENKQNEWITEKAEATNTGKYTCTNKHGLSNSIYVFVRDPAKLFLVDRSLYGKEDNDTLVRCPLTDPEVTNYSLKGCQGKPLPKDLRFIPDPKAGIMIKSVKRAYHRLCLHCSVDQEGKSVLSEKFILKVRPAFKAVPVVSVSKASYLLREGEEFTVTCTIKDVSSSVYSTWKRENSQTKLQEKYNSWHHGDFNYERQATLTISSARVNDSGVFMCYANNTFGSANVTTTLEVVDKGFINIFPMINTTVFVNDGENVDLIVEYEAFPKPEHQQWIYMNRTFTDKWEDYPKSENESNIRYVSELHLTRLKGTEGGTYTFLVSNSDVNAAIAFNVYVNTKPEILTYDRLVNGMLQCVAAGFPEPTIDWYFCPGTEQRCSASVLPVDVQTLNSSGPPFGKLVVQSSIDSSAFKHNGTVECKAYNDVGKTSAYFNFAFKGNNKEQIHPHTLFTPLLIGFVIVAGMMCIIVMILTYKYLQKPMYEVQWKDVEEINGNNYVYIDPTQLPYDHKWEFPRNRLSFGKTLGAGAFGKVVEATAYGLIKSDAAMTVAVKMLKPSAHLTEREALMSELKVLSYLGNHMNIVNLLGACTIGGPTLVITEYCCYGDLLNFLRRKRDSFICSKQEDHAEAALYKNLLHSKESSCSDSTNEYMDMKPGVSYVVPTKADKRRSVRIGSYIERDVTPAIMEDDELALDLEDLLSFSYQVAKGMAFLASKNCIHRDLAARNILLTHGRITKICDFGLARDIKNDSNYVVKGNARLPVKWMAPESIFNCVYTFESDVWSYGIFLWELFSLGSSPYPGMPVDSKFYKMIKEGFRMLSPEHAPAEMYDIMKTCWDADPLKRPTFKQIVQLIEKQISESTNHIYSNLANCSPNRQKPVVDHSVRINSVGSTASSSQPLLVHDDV

[21] = target: Mast/stem cell growth factor receptor Kit (Homo sapiens) (UniProt P10721); conditions: Compound concentration 1000.0 nM
Chain of Mast/stem cell growth factor receptor Kit (Homo sapiens) (P10721 whole entry): as the sequence (P10721 whole entry V559D) above, with D559V counted along it

[22] = target: Mitogen-activated protein kinase kinase kinase 2 (Homo sapiens) (UniProt Q9Y2U5); conditions: Compound concentration 1000.0 nM
[23] = target: Mitogen-activated protein kinase kinase kinase kinase 5 (Homo sapiens) (UniProt Q9Y4K4); conditions: Compound concentration 1000.0 nM
[24] = target: Dual specificity mitogen-activated protein kinase kinase 4 (Homo sapiens) (UniProt P45985); conditions: Compound concentration 1000.0 nM
[25] = target: Tyrosine-protein kinase Mer (Homo sapiens) (UniProt Q12866); conditions: Compound concentration 1000.0 nM
[26] = target: Mitogen-activated protein kinase kinase kinase 9 (Homo sapiens) (UniProt P80192); conditions: Compound concentration 1000.0 nM
Chain of Mitogen-activated protein kinase kinase kinase 9 (Homo sapiens) (P80192 whole entry, looked up): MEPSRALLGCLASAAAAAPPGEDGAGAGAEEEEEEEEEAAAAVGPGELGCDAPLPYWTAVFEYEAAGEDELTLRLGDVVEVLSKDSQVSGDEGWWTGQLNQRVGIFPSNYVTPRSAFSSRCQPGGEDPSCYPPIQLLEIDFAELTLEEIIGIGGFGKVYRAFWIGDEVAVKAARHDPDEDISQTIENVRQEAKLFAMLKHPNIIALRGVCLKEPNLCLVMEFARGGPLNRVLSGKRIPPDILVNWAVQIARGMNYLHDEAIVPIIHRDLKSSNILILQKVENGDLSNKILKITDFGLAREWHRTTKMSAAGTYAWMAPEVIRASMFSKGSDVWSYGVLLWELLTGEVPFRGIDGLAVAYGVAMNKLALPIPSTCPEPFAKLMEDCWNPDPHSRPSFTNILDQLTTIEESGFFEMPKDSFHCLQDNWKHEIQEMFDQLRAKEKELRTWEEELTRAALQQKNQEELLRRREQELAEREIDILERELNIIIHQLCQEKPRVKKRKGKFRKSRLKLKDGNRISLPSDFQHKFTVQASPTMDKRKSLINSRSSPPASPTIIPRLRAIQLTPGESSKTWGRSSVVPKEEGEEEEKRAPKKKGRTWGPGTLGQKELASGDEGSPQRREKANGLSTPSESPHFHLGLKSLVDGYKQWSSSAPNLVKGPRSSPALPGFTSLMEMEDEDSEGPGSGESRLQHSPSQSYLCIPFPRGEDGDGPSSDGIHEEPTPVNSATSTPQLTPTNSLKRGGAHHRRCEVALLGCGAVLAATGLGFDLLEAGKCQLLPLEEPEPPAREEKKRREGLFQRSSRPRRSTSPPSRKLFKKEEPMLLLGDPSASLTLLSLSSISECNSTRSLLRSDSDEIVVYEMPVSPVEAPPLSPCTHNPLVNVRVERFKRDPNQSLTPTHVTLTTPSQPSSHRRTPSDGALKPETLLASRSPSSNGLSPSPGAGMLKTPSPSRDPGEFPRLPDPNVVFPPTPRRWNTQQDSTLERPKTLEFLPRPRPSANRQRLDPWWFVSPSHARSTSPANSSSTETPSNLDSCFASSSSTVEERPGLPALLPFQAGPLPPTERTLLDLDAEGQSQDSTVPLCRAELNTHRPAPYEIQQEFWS

[27] = target: Serine/threonine-protein kinase 26 (Homo sapiens) (UniProt Q9P289); conditions: Compound concentration 1000.0 nM
Chain of Serine/threonine-protein kinase 26 (Homo sapiens) (Q9P289 2-416 limits assumed): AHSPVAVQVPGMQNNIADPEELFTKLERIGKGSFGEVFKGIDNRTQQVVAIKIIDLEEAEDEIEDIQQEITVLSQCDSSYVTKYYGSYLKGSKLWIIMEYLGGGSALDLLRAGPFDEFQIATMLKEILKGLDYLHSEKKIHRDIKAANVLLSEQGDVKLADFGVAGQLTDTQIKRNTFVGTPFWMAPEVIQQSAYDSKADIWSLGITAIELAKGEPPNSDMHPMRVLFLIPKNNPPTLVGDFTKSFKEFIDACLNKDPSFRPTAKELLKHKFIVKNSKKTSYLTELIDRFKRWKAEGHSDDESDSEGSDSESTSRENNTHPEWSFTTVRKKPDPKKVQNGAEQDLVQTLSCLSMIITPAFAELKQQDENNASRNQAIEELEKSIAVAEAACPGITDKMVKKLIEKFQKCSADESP

[28] = target: Serine/threonine-protein kinase Nek11 (Homo sapiens) (UniProt Q8NG66); conditions: Compound concentration 1000.0 nM
Chain of Serine/threonine-protein kinase Nek11 (Homo sapiens) (Q8NG66 whole entry): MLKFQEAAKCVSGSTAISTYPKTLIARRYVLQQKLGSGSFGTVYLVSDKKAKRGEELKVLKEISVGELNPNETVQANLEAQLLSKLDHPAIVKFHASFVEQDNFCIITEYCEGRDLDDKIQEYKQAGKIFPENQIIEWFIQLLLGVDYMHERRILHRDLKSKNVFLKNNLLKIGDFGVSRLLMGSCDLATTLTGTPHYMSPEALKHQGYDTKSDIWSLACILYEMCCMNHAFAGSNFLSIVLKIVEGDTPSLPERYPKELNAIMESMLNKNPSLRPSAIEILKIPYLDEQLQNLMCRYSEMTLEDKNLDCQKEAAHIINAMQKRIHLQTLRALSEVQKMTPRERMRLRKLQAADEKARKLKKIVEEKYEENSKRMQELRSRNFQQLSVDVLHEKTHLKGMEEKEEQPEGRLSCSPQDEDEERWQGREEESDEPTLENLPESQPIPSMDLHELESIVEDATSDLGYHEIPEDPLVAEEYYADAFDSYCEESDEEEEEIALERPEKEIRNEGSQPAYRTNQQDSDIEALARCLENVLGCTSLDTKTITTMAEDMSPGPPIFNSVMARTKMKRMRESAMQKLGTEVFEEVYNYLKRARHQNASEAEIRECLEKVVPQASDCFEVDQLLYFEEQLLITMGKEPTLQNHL

[29] = target: Serine/threonine-protein kinase Nek3 (Homo sapiens) (UniProt P51956); conditions: Compound concentration 1000.0 nM
Chain of Serine/threonine-protein kinase Nek3 (Homo sapiens) (P51956 whole entry): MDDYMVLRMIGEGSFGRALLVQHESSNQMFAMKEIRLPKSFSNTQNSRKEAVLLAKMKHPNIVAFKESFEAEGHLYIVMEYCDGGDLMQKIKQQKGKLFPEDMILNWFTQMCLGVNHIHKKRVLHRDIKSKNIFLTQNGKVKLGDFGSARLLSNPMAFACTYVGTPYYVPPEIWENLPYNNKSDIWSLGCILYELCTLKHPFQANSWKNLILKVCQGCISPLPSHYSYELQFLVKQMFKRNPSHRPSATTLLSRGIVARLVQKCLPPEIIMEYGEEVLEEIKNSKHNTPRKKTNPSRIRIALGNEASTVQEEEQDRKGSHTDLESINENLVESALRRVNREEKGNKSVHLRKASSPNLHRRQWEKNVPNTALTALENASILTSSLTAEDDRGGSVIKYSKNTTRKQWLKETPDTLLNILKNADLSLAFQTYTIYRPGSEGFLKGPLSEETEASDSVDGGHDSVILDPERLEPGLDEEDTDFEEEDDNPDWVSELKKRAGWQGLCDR

[30] = target: Serine/threonine-protein kinase NIM1 (Homo sapiens) (UniProt Q8IY84); conditions: Compound concentration 1000.0 nM
[31] = target: Serine/threonine-protein kinase PAK 2 (Homo sapiens) (UniProt Q13177); conditions: Compound concentration 1000.0 nM
Chain of Serine/threonine-protein kinase PAK 2 (Homo sapiens) (Q13177 whole entry): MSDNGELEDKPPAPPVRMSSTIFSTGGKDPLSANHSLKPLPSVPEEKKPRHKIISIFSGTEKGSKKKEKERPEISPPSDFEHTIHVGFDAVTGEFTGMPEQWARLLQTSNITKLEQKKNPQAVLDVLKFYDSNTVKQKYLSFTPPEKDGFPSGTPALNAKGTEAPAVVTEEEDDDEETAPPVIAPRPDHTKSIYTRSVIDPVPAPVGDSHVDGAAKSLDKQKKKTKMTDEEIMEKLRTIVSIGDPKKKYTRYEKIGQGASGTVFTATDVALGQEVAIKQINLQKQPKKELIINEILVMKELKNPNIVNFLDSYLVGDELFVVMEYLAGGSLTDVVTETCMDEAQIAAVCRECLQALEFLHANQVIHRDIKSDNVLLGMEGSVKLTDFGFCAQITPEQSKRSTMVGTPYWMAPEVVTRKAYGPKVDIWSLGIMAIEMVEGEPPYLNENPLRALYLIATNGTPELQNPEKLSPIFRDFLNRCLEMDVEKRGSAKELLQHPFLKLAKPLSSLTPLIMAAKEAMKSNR

[32] = target: Cyclin-dependent kinase 18 (Homo sapiens) (UniProt Q07002); conditions: Compound concentration 1000.0 nM
[33] = target: 3-phosphoinositide-dependent protein kinase 1 (Homo sapiens) (UniProt O15530); conditions: Compound concentration 1000.0 nM
[34] = target: Cyclin-dependent kinase 14 (Homo sapiens) (UniProt O94921); conditions: Compound concentration 1000.0 nM
[35] = test system: Phosphatidylinositol 4,5-bisphosphate 3-kinase catalytic subunit alpha isoform (Homo sapiens), P42336 [Q546K]; conditions: Compound concentration 1000.0 nM
[36] = target: Phosphatidylinositol 4-phosphate 5-kinase type-1 gamma (Homo sapiens) (UniProt O60331); conditions: Compound concentration 1000.0 nM
[37] = target: Serine/threonine-protein kinase PknB (Mycobacterium tuberculosis) (UniProt P9WI81); conditions: Compound concentration 1000.0 nM
[38] = target: Protein kinase C eta type (Homo sapiens) (UniProt P24723); conditions: Compound concentration 1000.0 nM
[39] = target: Serine/threonine-protein kinase Sgk1 (Homo sapiens) (UniProt O00141); conditions: Compound concentration 1000.0 nM
[40] = target: Tyrosine-protein kinase Tec (Homo sapiens) (UniProt P42680); conditions: Compound concentration 1000.0 nM
Chain of Tyrosine-protein kinase Tec (Homo sapiens) (P42680 whole entry): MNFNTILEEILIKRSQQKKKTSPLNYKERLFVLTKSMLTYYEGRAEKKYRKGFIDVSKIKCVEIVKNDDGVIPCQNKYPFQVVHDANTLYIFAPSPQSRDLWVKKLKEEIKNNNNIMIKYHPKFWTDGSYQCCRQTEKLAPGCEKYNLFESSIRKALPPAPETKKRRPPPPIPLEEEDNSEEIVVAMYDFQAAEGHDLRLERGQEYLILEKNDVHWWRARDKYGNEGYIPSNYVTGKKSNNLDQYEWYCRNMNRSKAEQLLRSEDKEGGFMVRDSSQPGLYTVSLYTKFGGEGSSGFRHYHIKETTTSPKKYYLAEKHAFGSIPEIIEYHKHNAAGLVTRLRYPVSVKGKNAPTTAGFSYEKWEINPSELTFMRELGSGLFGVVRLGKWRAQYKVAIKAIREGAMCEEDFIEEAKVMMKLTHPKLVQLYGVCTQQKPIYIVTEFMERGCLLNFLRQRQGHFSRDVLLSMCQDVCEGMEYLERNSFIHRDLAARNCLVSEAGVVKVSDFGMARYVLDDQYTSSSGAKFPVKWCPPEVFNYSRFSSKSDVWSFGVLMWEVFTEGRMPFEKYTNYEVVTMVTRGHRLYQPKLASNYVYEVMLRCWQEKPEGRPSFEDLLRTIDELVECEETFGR

[41] = target: Non-receptor tyrosine-protein kinase TYK2 (Homo sapiens) (UniProt P29597); conditions: Compound concentration 1000.0 nM
[42] = target: Wee1-like protein kinase 2 (Homo sapiens) (UniProt P0C1S8); conditions: Compound concentration 1000.0 nM
[43] = target: 5-hydroxytryptamine receptor 1D (Homo sapiens) (UniProt P28221); conditions: Compound concentration 10.0 uM
[44] = target: Alpha-1B adrenergic receptor (Homo sapiens) (UniProt P35368); conditions: Compound concentration 10.0 uM
[45] = target: Beta-2 adrenergic receptor (Homo sapiens) (UniProt P07550); conditions: Compound concentration 10.0 uM

N#CC1(c2ccccn2)CCN(Cc2cc(C(=O)O)c(=O)n3ccccc23)CC1 [MSD-M1PAM]
inactive: residual activity [1] 57% | residual activity [2] 91% | residual activity [3] 100% | residual activity [4] 100% | residual activity [5] 93% | residual activity [6] 100% | residual activity [7] 76% | residual activity [8] 100% | residual activity [9] 100% | residual activity [10] 100% | residual activity [11] 100% | residual activity [12] 100% | residual activity [13] 100% | residual activity [14] 81% | residual activity [15] 94% | residual activity [16] 100% | residual activity [17] 94% | residual activity [18] 80% | residual activity [19] 100% | residual activity [20] 100% | residual activity [21] 87% | residual activity [22] 76% | residual activity [23] 87% | residual activity [24] 85% | residual activity [25] 100% | residual activity [26] 92% | residual activity [27] 100% | residual activity [28] 89% | residual activity [29] 66% | residual activity [30] 69% | residual activity [31] 77% | residual activity [32] 100% | residual activity [33] 100% | residual activity [34] 100% | residual activity [35] 58% | residual activity [36] 89% | residual activity [37] 88% | residual activity [38] 100% | residual activity [39] 87% | residual activity [40] 100% | residual activity [41] 93% | residual activity [42] 100% | inhibition [43] -4.55% | inhibition [44] 6.68% | inhibition [45] 13.9%

N#CC1(c2ccccn2)CCN(Cc2cc(C(=O)N3CCCC3)c(=O)n3ccccc23)CC1
inactive: residual activity [1] 92% | residual activity [2] 100% | residual activity [3] 85% | residual activity [4] 91% | residual activity [5] 100% | residual activity [6] 82% | residual activity [7] 100% | residual activity [8] 100% | residual activity [9] 100% | residual activity [10] 91% | residual activity [11] 89% | residual activity [12] 92% | residual activity [13] 90% | residual activity [14] 100% | residual activity [15] 100% | residual activity [16] 87% | residual activity [17] 90% | residual activity [18] 98% | residual activity [19] 100% | residual activity [20] 100% | residual activity [21] 100% | residual activity [22] 100% | residual activity [23] 75% | residual activity [24] 83% | residual activity [25] 86% | residual activity [26] 72% | residual activity [27] 100% | residual activity [28] 63% | residual activity [29] 83% | residual activity [30] 95% | residual activity [31] 100% | residual activity [32] 100% | residual activity [33] 81% | residual activity [34] 100% | residual activity [35] 94% | residual activity [36] 68% | residual activity [37] 92% | residual activity [38] 100% | residual activity [39] 100% | residual activity [40] 100% | residual activity [41] 100% | residual activity [42] 91% | inhibition [43] 14.6% | inhibition [44] 1.36% | inhibition [45] 15.8%
